Source: publication PMC12702354, “Engineered an ultrasmall curcumin oral nanoformulation restores intestinal integrity and gut microbiota dysbiosis” (Materials Today Bio, 2025)

Assays:
[1] = system: faecal metabolites of gut bacteria; test: Faecal metabolome analysis (GC-MS) in VAN-induced mice; format: in vivo, C57BL/6 mice
Procedure: The extract of faecal samples (40 mg/ml methanol) was prepared as described in the previous method. The obtained dry extract was derivatized with methoxyamine-HCl and BSTFA (Sigma-Aldrich, USA), followed by incubation for 1 h at 37 °C. Subsequently, the supernatant (10 μl) obtained after centrifugation at 10,000×g for 12 min was injected into an Agilent GC-MS. The injector, transfer line, and ion source were set at 280 °C, 150 °C and 230 °C, respectively. At the beginning, we set the oven temperature to 60 °C, and then increased at 60 °C/min for 2 min, followed by an increase at the rate of 10 °C/min until reaching 300 °C.

[2] = system: VAN-induced C57BL/6J mouse model; test: VAN-induced intestinal epithelial barrier dysfunction and gut inflammation model
Procedure: This was succeeded by a daily oral administration of 50 mg/kg UsNFs of CUR for another 10 days, whereas the control group (CON) received standard rodent feed and water (Fig. 5A).

[3] = Distribution of DiR-loaded UsNFs in the GIT; format: in vivo, C57BL/6J mice; conditions: oral, 2 mg/kg DiR
Procedure: 34 Distribution of UsNFs in the GIT.
37 of 2 mg/kg DiR. […] The stomachs and
41 FITC-dextran permeability assay .
Blood samples were collected at
44 shielded from light exposure. […] Standards (0.1–
48 subtraction and subjected to statistical analysis.
The mice were divided into three groups
61 sterilized drinking water.

Q: What does the source list for `CN[C@H](CC(C)C)C(=O)N[C@H]1C(=O)N[C@@H](CC(N)=O)C(=O)N[C@H]2C(=O)N[C@H]3C(=O)N[C@H](C(=O)N[C@H](C(=O)O)c4cc(O)cc(O)c4-c4cc3ccc4O)[C@H](O)c3ccc(c(Cl)c3)Oc3cc2cc(c3O[C@@H]2O[C@H](CO)[C@@H](O)[C@H](O)[C@H]2O[C@H]2C[C@](C)(N)[C@H](O)[C@H](C)O2)Oc2ccc(cc2Cl)[C@H]1O` [VAN, vancomycin]?
A: Content of butyrate in faeces ([1]; VAN-induced group (CON 1.1 %)): 0.14%; Content of propionate in faeces ([1]; VAN-induced group (CON 1.3 %)): 0.16%; Content of acetate in faeces ([1]; VAN-induced group (CON 1.52 %)): 0.16%; Content of azelaic acid in faeces ([1]; VAN-induced group (CON 2.2 %)): 0.34%; Content of 9,12,15-octadecatrienoic acid in faeces ([1]; VAN-induced group (CON 3.11 %)): 0.8%; Content of 4-aminovaleric acid in faeces ([1]; VAN-induced group (CON 12.7 %)): 1.4%; Content of hexanoic acid in faeces ([1]; VAN-induced group, printed from 23.7 % to 0.81 %): 0.81%; Colon length increase over control group ([2]; VAN 20 mg/ml in drinking water, 10 days): 21.9%; MDA level increase ([2]; VAN-induced group): around 2.5 times

Q: With `CCCCCCCCCCCCCCCCCCN1C(=CC=CC=CC=CC2=[N+](CCCCCCCCCCCCCCCCCC)c3ccccc3C2(C)C)C(C)(C)c2ccccc21` [Free DiR, 1,1′-dioctadecyl-3,3,3′,3′-tetramethylindotricarbocyanine] as the molecule, how does the “Residence in the GIT (NIR signal of DiR)” value [3] read?
A: quick removal via feces
